Source: US20210395239A1 (Hoffmann-La Roche Inc., priority 2018, published 2021)

Columns and labels:
hERG channel = target: T1, hERG channel (Homo sapiens, UniProt Q12809); assay: hERG channel inhibition assay (patch-clamp, CHOhERG cells); format: cell-based
T1 construct: expressed in transfected cells; host or cells: CHO (Chinese hamster ovary)
Method: hERG Channel Inhibition Assay:
The hERG K^+ channels were cloned in humans and stably expressed in a CHO (Chinese hamster ovary) cell line. CHOhERG cells were used for patch-clamp (voltage-clamp, whole-cell) experiments. Cells were stimulated by a voltage pattern to activate hERG channels and conduct IKhERG currents (rapid delayed outward rectifier potassium current of the hERG channel). After the cells were stabilized for a few minutes, the amplitude and kinetics of IKhERG were recorded at a stimulation frequency of 0.1 Hz, (6 bpm). Thereafter, the test compound was added to the preparation at increasing concentrations. For each concentration, an attempt was made to reach a steady-state effect, usually, this was achieved within 3-10 min at which time the next highest concentration was applied. The amplitude and kinetics of IKhERG are recorded in each concentration of the drug which were compared to the control values (taken as 100%). (references: Redfern W S, Carlsson L, Davis A S, Lynch W G, MacKenzie I, Palethorpe S, Siegl P K, Strang I, Sullivan A T, Wallis R, Camm A J, Hammond T G. 2003; Relationships between preclinical cardiac electrophysiology, clinical QT interval prolongation and torsade de pointes for a broad range of drugs: evidence for a provisional safety margin in drug development. Cardiovasc. Res. 58:32-45, Sanguinetti M C, Tristani-Firouzi M. 2006; hERG potassium channels and cardiac arrhythmia. Nature 440:463-469, Webster R, Leishman D, Walker D. 2002; Towards a drug concentration effect relationship for QT prolongation and torsades de pointes. Curr. Opin. Drug Discov. Devel. 5:116-26).

CYP2C9 = target: T2, CYP2C9 (Homo sapiens, UniProt P11712); assay: CYP inhibition assay in human liver microsome, CYP2C9; format: in vitro ADME; settings: human, human liver microsomes, probe diclofenac 5 μM, substrate diclofenac 5 μM, first value of 2C9/2D6/3A4
T2 construct: tissue BD-Gentest 452117; host or cells: human liver microsomes
Method: (§1) This is a high throughput screening assay used for assessment of reversible inhibition of CYP2C9, CYP2D6, and CYP3A4 activity of test compounds in human liver microsome (HLM) in early discovery stage.
(§2) 10 mM DMSO stock solutions of test compounds were diluted in DMSO to generate 2 mM intermediate stock solution. 250 nL, of intermediate stock solution were transferred in duplicate into 3 separate 384 well microtitre plates (assay-ready plates). A mixture of HLM and each substrate was made up. 45 μL of HLM substrate mix was then transferred to each well of an assay ready plate and mixed. The negative (solvent) and positive controls (standard inhibitor for each CYP) were included in each assay ready plate. The assay ready plate was warmed to 37° C. in an incubator over 10 minutes. 5 μL pre-warmed NADPH regenerating system was added to each incubation well to start the reaction. Final incubation volume was 50 μL. The assay plate then was placed back in the 37° C. incubator. After incubation (10 minutes for CYP2D6) for 5 minutes, incubates were quenched by addition of 50 μL 100% acetonitrile containing internal standards (400 ng/mL 13C6-4′-OH-Diclofenac, 20 ng/mL D3-Dextrorphan and 20 ng/mL D4-1′OH-Midazolam). The supernatants were collected for RapidFire/MS/MS analysis.
(§3) RapidFire online solid phase extraction/sample injection system (Agilent) coupled with API4000 triple quadrupole mass spectrometer (AB Sciex) were used for sample analysis. The mobile phase composed of acetonitrile and water supplemented with 0.1% formic acid. A C4 solid phase extraction cartridge is used for sample separation. MS detection is achieved in positive ion MRM mode.
(§4) Peak areas for substrate, metabolite and internal standard are determined using the RapidFire integrator software (version 3.6.12009.12296). Peak area ratios (PAR) of metabolite and internal standard (stable-labelled metabolite) are then calculated. The measurement window for each experiment is then defined:
(§5) PAR (0% activity)=average PAR for all incubations containing concentrated inhibitor; Par (100% activity)=average PAR for all incubations containing no inhibitor (DMSO controls); % Activity (test inhibitor)=[PAR (test inhibitor)−PAR (0% activity)]/[PAR (100% activity)−PAR (0% activity)]; % Inhibition (test inhibitor)=100-% Activity (test inhibitor).

CYP3A4 = target: T3, CYP3A4 (Homo sapiens, UniProt P08684); assay: CYP inhibition assay in human liver microsome, CYP3A4; format: in vitro ADME; settings: human, human liver microsomes, probe midazolam 5 μM, substrate midazolam 5 μM, third value of 2C9/2D6/3A4
T3 construct: tissue BD-Gentest 452117; host or cells: human liver microsomes
Method: as §1, §2, §3, §4, §5

hTLR9 = target: T4, hTLR9 (Homo sapiens, UniProt Q9NR96); set-up: host or cells: HEK; settings: data disclosed in US20150105370; read-out: HEK/hTLR9 IC50; cited from earlier work
T4 sequence (Q9NR96 26-1032): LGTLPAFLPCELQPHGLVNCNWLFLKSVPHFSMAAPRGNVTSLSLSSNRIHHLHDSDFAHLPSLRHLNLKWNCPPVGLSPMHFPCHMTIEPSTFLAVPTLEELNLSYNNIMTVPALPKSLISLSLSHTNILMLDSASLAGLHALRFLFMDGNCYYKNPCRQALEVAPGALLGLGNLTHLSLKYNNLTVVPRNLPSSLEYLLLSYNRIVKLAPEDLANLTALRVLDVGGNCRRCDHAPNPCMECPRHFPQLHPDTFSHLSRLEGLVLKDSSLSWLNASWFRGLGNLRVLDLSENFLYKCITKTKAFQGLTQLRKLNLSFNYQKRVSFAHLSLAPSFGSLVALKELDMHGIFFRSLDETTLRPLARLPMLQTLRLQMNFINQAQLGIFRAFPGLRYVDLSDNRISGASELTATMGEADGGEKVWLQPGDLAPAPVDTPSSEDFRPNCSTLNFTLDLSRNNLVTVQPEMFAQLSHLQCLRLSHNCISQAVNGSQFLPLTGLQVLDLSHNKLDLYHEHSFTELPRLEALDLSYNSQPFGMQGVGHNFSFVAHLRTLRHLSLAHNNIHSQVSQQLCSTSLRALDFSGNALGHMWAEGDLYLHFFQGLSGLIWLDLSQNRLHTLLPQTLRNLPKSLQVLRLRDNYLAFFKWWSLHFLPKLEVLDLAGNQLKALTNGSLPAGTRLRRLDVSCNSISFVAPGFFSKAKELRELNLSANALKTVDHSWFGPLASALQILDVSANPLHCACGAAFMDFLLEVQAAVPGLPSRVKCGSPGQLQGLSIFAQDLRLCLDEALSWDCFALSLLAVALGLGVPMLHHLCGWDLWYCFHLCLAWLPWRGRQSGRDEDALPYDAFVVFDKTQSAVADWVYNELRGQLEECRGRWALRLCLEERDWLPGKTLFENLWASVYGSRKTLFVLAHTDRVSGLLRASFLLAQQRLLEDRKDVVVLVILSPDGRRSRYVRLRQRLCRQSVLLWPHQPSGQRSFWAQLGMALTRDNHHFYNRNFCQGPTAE

T1 sequence (Q12809 whole entry): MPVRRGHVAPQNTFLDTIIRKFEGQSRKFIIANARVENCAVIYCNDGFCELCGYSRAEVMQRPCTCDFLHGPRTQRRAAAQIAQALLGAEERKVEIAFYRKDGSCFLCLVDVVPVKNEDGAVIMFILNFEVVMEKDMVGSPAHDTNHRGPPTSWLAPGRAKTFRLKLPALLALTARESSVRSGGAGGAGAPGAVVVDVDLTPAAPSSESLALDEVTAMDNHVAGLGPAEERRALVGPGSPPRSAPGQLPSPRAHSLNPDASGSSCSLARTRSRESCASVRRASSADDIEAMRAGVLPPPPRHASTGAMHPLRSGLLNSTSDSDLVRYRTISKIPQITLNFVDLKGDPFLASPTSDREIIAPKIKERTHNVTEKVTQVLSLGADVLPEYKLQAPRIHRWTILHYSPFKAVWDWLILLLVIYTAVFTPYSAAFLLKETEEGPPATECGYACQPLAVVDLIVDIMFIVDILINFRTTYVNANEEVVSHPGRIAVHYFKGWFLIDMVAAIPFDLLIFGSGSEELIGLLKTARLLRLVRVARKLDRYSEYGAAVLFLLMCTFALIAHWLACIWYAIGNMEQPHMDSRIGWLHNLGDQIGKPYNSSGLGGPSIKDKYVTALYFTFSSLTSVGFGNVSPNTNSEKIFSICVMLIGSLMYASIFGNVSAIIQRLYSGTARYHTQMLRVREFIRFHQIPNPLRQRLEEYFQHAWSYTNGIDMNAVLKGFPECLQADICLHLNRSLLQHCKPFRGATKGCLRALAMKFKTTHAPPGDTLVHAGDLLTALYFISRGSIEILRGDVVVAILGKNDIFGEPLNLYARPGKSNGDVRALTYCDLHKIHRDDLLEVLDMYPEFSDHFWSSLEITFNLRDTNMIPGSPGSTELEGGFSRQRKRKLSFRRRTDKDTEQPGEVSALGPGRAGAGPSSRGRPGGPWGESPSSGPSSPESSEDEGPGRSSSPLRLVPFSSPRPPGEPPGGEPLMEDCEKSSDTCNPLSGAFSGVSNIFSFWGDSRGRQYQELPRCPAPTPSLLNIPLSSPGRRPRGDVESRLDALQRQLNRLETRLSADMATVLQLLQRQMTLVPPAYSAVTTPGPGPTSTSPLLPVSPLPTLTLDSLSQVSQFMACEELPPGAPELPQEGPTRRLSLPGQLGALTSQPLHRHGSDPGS
T3 sequence (P08684 whole entry): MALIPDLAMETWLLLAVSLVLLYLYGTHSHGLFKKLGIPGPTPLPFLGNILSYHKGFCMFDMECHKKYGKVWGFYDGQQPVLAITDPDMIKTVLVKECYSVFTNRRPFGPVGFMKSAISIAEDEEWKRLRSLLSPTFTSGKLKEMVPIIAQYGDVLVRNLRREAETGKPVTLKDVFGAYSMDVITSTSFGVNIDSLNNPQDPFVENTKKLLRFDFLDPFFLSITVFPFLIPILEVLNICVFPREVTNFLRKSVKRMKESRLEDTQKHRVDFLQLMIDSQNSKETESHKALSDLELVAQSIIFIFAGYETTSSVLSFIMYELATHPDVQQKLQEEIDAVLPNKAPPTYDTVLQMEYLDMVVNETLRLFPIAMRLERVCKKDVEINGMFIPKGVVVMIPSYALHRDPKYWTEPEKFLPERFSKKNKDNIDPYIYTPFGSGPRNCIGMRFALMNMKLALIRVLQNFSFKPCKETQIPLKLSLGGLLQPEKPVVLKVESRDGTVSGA
T2 sequence (P11712 whole entry): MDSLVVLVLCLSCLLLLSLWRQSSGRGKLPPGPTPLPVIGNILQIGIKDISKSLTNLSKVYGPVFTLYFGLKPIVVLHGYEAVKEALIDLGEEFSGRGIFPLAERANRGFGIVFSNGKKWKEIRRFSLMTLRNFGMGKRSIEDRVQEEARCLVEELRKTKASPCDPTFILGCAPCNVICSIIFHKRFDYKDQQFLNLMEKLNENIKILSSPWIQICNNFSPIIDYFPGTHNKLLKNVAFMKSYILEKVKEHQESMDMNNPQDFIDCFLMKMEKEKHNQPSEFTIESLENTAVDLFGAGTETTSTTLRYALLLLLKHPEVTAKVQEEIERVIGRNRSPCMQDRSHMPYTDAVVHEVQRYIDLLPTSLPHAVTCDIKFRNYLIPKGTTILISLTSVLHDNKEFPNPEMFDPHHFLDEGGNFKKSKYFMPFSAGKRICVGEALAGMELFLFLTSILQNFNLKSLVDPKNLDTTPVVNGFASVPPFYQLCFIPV

inhibition at 5 min, 10 µM (CYP2C9): 29.5% | inhibition at 5 min, 10 µM (CYP3A4): 5.5%
SMILES: C[C@@H]1CN(c2ccc(C#N)c3ncccc23)C[C@H](CN2CCN(c3ccncc3)CC2)O1 [ER-888286, reference compound]
safety window (hERG IC20/TLR7/8/9 IC50) compared to the compounds of this invention (hERG channel; result in words): much narrower safety window | hERG IC20/TLR7 IC50 (hERG channel; safety ratio): 0.3 | hERG IC20/TLR9 IC50 (hERG channel; safety ratio): 0.2 | IC50 (hTLR9): > 2000 nM
